Assay results reported in ChEMBL document CHEMBL5512655, “Discovery of indolylacryloyl-derived oxacins as novel potential broad-spectrum antibacterial candidates” (Eur J Med Chem, 2024).
Values after ≈ are worked out from the molar mass of the structure shown.

Assays:
Assay type in all cases: functional
Staphylococcus aureus [1] = experiment: Antibacterial activity against methicillin-resistant Staphylococcus aureus N315 assessed as inhibition of bacterial growth measured after 24 hrs incubation
Escherichia coli [2] = experiment: Antibacterial activity against Escherichia coli assessed as inhibition of bacterial growth measured after 24 hrs incubation
Pseudomonas aeruginosa [3] = experiment: Antibacterial activity against Pseudomonas aeruginosa assessed as inhibition of bacterial growth measured after 24 hrs incubation
Staphylococcus aureus [4] = experiment: Antibacterial activity against Staphylococcus aureus ATCC 25923 assessed as inhibition of bacterial growth measured after 24 hrs incubation
Acinetobacter baumannii = experiment: Antibacterial activity against Acinetobacter baumannii assessed as inhibition of bacterial growth measured after 24 hrs incubation
Pseudomonas aeruginosa [5] = experiment: Antibacterial activity against Pseudomonas aeruginosa ATCC 27853 assessed as inhibition of bacterial growth measured after 24 hrs incubation
Staphylococcus aureus [6] = experiment: Antibacterial activity against Staphylococcus aureus assessed as inhibition of bacterial growth measured after 24 hrs incubation
Staphylococcus aureus [7] = experiment: Antibacterial activity against Staphylococcus aureus ATCC 29213 assessed as inhibition of bacterial growth measured after 24 hrs incubation
Escherichia coli [8] = experiment: Antibacterial activity against Escherichia coli ATCC 25922 assessed as inhibition of bacterial growth measured after 24 hrs incubation
Klebsiella pneumoniae = experiment: Antibacterial activity against Klebsiella pneumonia assessed as inhibition of bacterial growth measured after 24 hrs incubation
Enterococcus faecalis = experiment: Antibacterial activity against Enterococcus faecalis assessed as inhibition of bacterial growth measured after 24 hrs incubation

Row | Structure (SMILES) | MIC (Staphylococcus aureus [1]) [µg/mL] | MIC (Escherichia coli [2]) [µg/mL] | MIC (Pseudomonas aeruginosa [3]) [µg/mL] | MIC (Staphylococcus aureus [4]) [µg/mL] | MIC (Acinetobacter baumannii) [µg/mL] | MIC (Pseudomonas aeruginosa [5]) [µg/mL] | MIC (Staphylococcus aureus [6]) [µg/mL] | MIC (Staphylococcus aureus [7]) [µg/mL] | MIC (Escherichia coli [8]) [µg/mL] | MIC (Klebsiella pneumoniae) [µg/mL] | MIC (Enterococcus faecalis) [µg/mL]
1 | CCn1cc(C(=O)O)c(=O)c2cc(F)c(N3CCN(C(=O)/C(C#N)=C/c4c[nH]c5ccc(Cl)cc45)CC3)cc21 | 1 (≈ 1.82 µM) | 0.25 (≈ 0.456 µM) | 2 (≈ 3.65 µM) | 16 (≈ 29.2 µM) | 1 (≈ 1.82 µM) | 0.25 (≈ 0.456 µM) | 1 (≈ 1.82 µM) | 2 (≈ 3.65 µM) | 0.25 (≈ 0.456 µM) | 1 (≈ 1.82 µM) | 1 (≈ 1.82 µM)
2 | CCCn1cc(/C=C(\C#N)C(=O)N2CCN(c3cc4c(cc3F)c(=O)c(C(=O)O)cn4CC)CC2)c2ccccc21 | 2 (≈ 3.6 µM) | 0.5 (≈ 0.9 µM) | 0.5 (≈ 0.9 µM) | 4 (≈ 7.2 µM) | 0.25 (≈ 0.45 µM) | 1 (≈ 1.8 µM) | 0.5 (≈ 0.9 µM) | 1 (≈ 1.8 µM) | 0.25 (≈ 0.45 µM) | 0.25 (≈ 0.45 µM) | 1 (≈ 1.8 µM)
3 | CCn1cc(C(=O)O)c(=O)c2cc(F)c(N3CCN(C(=O)/C(C#N)=C/c4cn(Cc5ccccc5F)c5ccccc45)CC3)cc21 | 0.25 (≈ 0.402 µM) | 0.5 (≈ 0.804 µM) | 1 (≈ 1.61 µM) | 16 (≈ 25.7 µM) | 0.5 (≈ 0.804 µM) | 0.5 (≈ 0.804 µM) | 32 (≈ 51.5 µM) | 32 (≈ 51.5 µM) | 0.25 (≈ 0.402 µM) | 1 (≈ 1.61 µM) | 16 (≈ 25.7 µM)
4 | CCn1cc(C(=O)O)c(=O)c2cc(F)c(N3CCN(C(=O)/C(C#N)=C/c4c[nH]c5cc(C)ccc45)CC3)cc21 | 0.25 (≈ 0.474 µM) | 1 (≈ 1.9 µM) | 0.25 (≈ 0.474 µM) | 0.25 (≈ 0.474 µM) | 0.25 (≈ 0.474 µM) | 2 (≈ 3.79 µM) | 0.25 (≈ 0.474 µM) | 1 (≈ 1.9 µM) | 0.5 (≈ 0.948 µM) | 0.25 (≈ 0.474 µM) | 2 (≈ 3.79 µM)
5 | CCn1cc(C(=O)O)c(=O)c2cc(F)c(N3CCN(C(=O)/C(C#N)=C/c4cn(Cc5ccc(Cl)cc5)c5ccccc45)CC3)cc21 | 32 (≈ 50.1 µM) | 1 (≈ 1.57 µM) | 0.5 (≈ 0.784 µM) | 16 (≈ 25.1 µM) | 0.5 (≈ 0.784 µM) | 1 (≈ 1.57 µM) | 64 (≈ 100 µM) | 16 (≈ 25.1 µM) | 4 (≈ 6.27 µM) | 0.5 (≈ 0.784 µM) | 32 (≈ 50.1 µM)
6 | CCn1cc(C(=O)O)c(=O)c2cc(F)c(N3CCN(C(=O)/C(C#N)=C/c4cn(Cc5ccccc5)c5ccccc45)CC3)cc21 | 4 (≈ 6.63 µM) | 1 (≈ 1.66 µM) | 256 (≈ 424 µM) | 4 (≈ 6.63 µM) | 2 (≈ 3.31 µM) | 1 (≈ 1.66 µM) | 4 (≈ 6.63 µM) | 4 (≈ 6.63 µM) | 2 (≈ 3.31 µM) | 0.5 (≈ 0.828 µM) | 4 (≈ 6.63 µM)
7 | C=CCn1cc(/C=C(\C#N)C(=O)N2CCN(c3cc4c(cc3F)c(=O)c(C(=O)O)cn4CC)CC2)c2ccccc21 | 2 (≈ 3.61 µM) | 8 (≈ 14.5 µM) | 1 (≈ 1.81 µM) | 1 (≈ 1.81 µM) | 2 (≈ 3.61 µM) | 0.25 (≈ 0.452 µM) | 1 (≈ 1.81 µM) | 16 (≈ 28.9 µM) | 1 (≈ 1.81 µM) | 1 (≈ 1.81 µM) | 8 (≈ 14.5 µM)
8 | CCn1cc(C(=O)O)c(=O)c2cc(F)c(N3CCN(C(=O)/C(C#N)=C/c4cn(Cc5cccc(F)c5)c5ccccc45)CC3)cc21 | 16 (≈ 25.7 µM) | 0.25 (≈ 0.402 µM) | 2 (≈ 3.22 µM) | 16 (≈ 25.7 µM) | 0.5 (≈ 0.804 µM) | 1 (≈ 1.61 µM) | 32 (≈ 51.5 µM) | 8 (≈ 12.9 µM) | 0.25 (≈ 0.402 µM) | 1 (≈ 1.61 µM) | 16 (≈ 25.7 µM)
9 | CCn1cc(C(=O)O)c(=O)c2cc(F)c(N3CCN(C(=O)/C(C#N)=C/c4cn(CC5CC5)c5ccccc45)CC3)cc21 | 0.5 (≈ 0.881 µM) | 4 (≈ 7.05 µM) | 1 (≈ 1.76 µM) | 1 (≈ 1.76 µM) | 2 (≈ 3.52 µM) | 0.5 (≈ 0.881 µM) | 4 (≈ 7.05 µM) | 0.5 (≈ 0.881 µM) | 1 (≈ 1.76 µM) | 1 (≈ 1.76 µM) | 1 (≈ 1.76 µM)
